{
  "source": "patent US20220088016A1",
  "about": "“CANCER TREATMENT USING MULTI-TARGETED KINASE INHIBITOR IN COMBINATION OF PROTEIN KINASE BIOMARKERS” (ZHEJIANG CROWNMAB BIOTECH CO. LTD., priority 2019, published 2022)",
  "key": {"INSR": {"biological_target": "INSR (Homo sapiens, UniProt P06213)", "assay": "Kinase profiling", "type": "binding", "conditions": "read-out: % Ctrl @ 1000 nM"}, "BRSK2": {"biological_target": "BRSK2 (Homo sapiens, UniProt Q8IWQ3)", "assay": "Kinase profiling", "type": "binding", "conditions": "read-out: % Ctrl @ 1000 nM"}, "RIPK5": {"biological_target": "RIPK5 (Homo sapiens, UniProt Q6XUX3)", "assay": "Kinase profiling", "type": "binding", "conditions": "read-out: % Ctrl @ 1000 nM"}, "ASK2": {"biological_target": "ASK2 (Homo sapiens, UniProt O95382)", "assay": "Kinase profiling", "type": "binding", "conditions": "read-out: % Ctrl @ 1000 nM"}, "PHKG2": {"biological_target": "PHKG2 (Homo sapiens, UniProt P15735)", "assay": "Kinase profiling", "type": "binding", "conditions": "read-out: % Ctrl @ 1000 nM"}, "CHEK2": {"biological_target": "CHEK2 (Homo sapiens, UniProt O96017)", "assay": "Kinase profiling", "type": "binding", "conditions": "read-out: % Ctrl @ 1000 nM"}, "LIMK2": {"biological_target": "LIMK2 (Homo sapiens, UniProt P53671)", "assay": "Kinase profiling", "type": "binding", "conditions": "read-out: % Ctrl @ 1000 nM"}, "BaF3 hCSF1R cell line": {"test_system": "BaF3 hCSF1R cell line", "assay": "Proliferation of engineered BaF3 hCSF1R cell line (CTG assay)", "type": "cell-based", "conditions": "Mus musculus, 72 h; engineered BaF3 hCSF1R; 3 days; CTG; read-out: IC50", "protocol": "Two syngeneic cell lines M-NFS-60 and RAW264.7 and engineered BaF3 hCSFIR cell line were starved and then tested with CBT-102 and other test articles for 3 days in the temperature of 37° C., 5% CO2 and 95% humidity. The cell viability was then detected using CTG assay. The software of GraphPad Prism was used to calculate IC50.\nCSF-1 dependent mouse myeloid M-NFS-60 cells were employed as target cells while a CSF-1 independent cell line Raw 264.7 was used as a negative control. In addition to CBT-102, the study also included 3 CSF-1R inhibitors: GW2580, BLZ945 and Pexidartinib."}, "[1]": {"biological_target": "RPS6KA5 (Kin.Dom.1-N-terminal) (Homo sapiens, UniProt O75582)", "sequence (O75582 49-318 limits assumed)": "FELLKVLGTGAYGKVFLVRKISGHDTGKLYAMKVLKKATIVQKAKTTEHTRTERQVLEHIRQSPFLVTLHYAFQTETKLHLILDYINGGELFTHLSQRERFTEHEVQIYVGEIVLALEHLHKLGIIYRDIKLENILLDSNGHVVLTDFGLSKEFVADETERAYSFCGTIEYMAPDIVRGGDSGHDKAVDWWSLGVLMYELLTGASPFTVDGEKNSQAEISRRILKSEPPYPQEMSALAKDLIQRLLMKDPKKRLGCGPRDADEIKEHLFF", "assay": "Kinase profiling", "type": "binding", "conditions": "read-out: % Ctrl @ 1000 nM"}, "[2]": {"biological_target": "EGFR (L747-T751del, Sins) (Homo sapiens, UniProt P00533, DEL747-750/T751S)", "assay": "Kinase profiling", "type": "binding", "conditions": "read-out: % Ctrl @ 1000 nM"}, "DCAMKL1": {"biological_target": "DCAMKL1 (Homo sapiens, UniProt O15075)", "assay": "Kinase profiling", "type": "binding", "conditions": "read-out: % Ctrl @ 1000 nM"}, "SLK": {"biological_target": "SLK (Homo sapiens, UniProt Q9H2G2)", "assay": "Kinase profiling", "type": "binding", "conditions": "read-out: % Ctrl @ 1000 nM"}, "VEGFR2": {"biological_target": "VEGFR2 (Homo sapiens, UniProt P35968)", "assay": "Kinase profiling", "type": "binding", "conditions": "read-out: % Ctrl @ 1000 nM"}, "PKNB (M.tuberculosis)": {"biological_target": "PKNB (M.tuberculosis) (Mycobacterium tuberculosis, UniProt P9WI81)", "assay": "Kinase profiling", "type": "binding", "conditions": "read-out: % Ctrl @ 1000 nM"}, "GRK3": {"biological_target": "GRK3 (Homo sapiens, UniProt P35626)", "assay": "Kinase profiling", "type": "binding", "conditions": "read-out: % Ctrl @ 1000 nM"}, "[3]": {"biological_target": "RSK1 (Kin.Dom.1-N-terminal) (Homo sapiens, UniProt Q15418)", "assay": "Kinase profiling", "type": "binding", "conditions": "read-out: % Ctrl @ 1000 nM"}, "CDK4": {"biological_target": "CDK4 (Homo sapiens, UniProt P11802)", "assay": "Kinase profiling", "type": "binding", "conditions": "read-out: % Ctrl @ 1000 nM"}, "NIK": {"biological_target": "T1, NIK (Homo sapiens, UniProt Q99558)", "T1 construct": "T7 phage fusion (said for most assays); made in house", "assay": "Kinase profiling", "type": "binding", "conditions": "read-out: % Ctrl @ 1000 nM"}, "MEK6": {"biological_target": "T2, MEK6 (Homo sapiens, UniProt P52564)", "T2 construct": "T7 phage fusion (stated for most kinases of the panel only); made in house; host or cells: T7 phage in E. coli (BL21-derived) or HEK-293 cells", "assay": "Kinase profiling", "type": "binding", "conditions": "read-out: % Ctrl @ 1000 nM"}, "PIM3": {"biological_target": "PIM3 (Homo sapiens, UniProt Q86V86)", "assay": "Kinase profiling", "type": "binding", "conditions": "read-out: % Ctrl @ 1000 nM"}, "DMPK2": {"biological_target": "DMPK2 (Homo sapiens, UniProt Q6DT37)", "assay": "Kinase profiling", "type": "binding", "conditions": "read-out: % Ctrl @ 1000 nM"}, "GAK": {"biological_target": "GAK (Homo sapiens, UniProt O14976)", "sequence (O14976 whole entry)": "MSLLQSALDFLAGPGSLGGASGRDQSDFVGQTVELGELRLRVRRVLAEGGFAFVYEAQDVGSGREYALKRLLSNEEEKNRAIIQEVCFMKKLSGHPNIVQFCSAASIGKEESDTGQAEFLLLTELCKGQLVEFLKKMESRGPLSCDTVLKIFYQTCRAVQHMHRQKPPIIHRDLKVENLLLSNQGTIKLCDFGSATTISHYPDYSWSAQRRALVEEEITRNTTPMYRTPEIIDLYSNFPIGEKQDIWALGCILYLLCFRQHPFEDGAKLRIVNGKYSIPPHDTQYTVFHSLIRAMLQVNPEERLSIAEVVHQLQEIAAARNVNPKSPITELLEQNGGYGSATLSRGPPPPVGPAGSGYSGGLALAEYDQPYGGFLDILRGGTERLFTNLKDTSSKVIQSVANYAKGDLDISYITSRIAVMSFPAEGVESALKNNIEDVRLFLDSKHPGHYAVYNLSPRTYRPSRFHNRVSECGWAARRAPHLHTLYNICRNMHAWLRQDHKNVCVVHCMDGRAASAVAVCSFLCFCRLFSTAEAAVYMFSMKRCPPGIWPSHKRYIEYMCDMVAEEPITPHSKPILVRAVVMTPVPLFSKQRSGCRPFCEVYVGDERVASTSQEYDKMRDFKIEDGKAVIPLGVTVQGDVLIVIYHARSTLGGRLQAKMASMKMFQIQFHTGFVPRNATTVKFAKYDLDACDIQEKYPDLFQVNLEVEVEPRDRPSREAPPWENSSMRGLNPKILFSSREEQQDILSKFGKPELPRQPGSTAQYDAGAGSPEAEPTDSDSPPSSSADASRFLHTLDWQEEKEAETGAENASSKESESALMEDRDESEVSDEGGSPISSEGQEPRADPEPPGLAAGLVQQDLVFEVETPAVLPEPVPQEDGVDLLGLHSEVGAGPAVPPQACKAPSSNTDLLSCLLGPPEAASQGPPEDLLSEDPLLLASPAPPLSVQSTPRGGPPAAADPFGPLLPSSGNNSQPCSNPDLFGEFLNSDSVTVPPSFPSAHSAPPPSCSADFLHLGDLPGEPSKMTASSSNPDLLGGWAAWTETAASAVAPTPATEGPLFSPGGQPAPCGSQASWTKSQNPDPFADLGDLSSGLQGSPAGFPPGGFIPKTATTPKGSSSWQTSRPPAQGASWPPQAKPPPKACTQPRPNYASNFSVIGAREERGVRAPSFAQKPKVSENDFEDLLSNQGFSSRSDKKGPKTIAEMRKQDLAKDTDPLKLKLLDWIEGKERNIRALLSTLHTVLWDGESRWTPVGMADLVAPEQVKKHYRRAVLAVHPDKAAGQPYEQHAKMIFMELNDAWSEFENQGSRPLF", "assay": "Kinase profiling", "type": "binding", "conditions": "read-out: % Ctrl @ 1000 nM"}, "IGF1R": {"biological_target": "IGF1R (Homo sapiens, UniProt P08069)", "assay": "Kinase profiling", "type": "binding", "conditions": "read-out: % Ctrl @ 1000 nM"}, "GRK1": {"biological_target": "GRK1 (Homo sapiens, UniProt Q15835)", "sequence (Q15835 whole entry)": "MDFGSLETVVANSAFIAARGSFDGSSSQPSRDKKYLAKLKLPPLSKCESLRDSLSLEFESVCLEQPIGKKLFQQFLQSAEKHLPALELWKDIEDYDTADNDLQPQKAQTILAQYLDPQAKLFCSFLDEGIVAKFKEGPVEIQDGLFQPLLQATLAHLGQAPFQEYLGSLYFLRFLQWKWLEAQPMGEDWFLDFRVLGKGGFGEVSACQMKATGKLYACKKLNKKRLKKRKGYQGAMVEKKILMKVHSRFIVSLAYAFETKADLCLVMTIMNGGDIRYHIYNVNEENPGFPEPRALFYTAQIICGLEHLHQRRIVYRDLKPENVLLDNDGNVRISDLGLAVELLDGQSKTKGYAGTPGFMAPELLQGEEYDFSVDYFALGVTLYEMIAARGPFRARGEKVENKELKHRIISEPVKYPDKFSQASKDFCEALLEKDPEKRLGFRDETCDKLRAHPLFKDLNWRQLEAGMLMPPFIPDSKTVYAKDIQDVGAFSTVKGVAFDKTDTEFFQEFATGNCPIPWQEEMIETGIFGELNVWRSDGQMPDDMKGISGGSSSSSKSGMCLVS", "assay": "Kinase profiling", "type": "binding", "conditions": "read-out: % Ctrl @ 1000 nM"}, "DDR2": {"biological_target": "DDR2 (Homo sapiens, UniProt Q16832)", "sequence (Q16832 22-855)": "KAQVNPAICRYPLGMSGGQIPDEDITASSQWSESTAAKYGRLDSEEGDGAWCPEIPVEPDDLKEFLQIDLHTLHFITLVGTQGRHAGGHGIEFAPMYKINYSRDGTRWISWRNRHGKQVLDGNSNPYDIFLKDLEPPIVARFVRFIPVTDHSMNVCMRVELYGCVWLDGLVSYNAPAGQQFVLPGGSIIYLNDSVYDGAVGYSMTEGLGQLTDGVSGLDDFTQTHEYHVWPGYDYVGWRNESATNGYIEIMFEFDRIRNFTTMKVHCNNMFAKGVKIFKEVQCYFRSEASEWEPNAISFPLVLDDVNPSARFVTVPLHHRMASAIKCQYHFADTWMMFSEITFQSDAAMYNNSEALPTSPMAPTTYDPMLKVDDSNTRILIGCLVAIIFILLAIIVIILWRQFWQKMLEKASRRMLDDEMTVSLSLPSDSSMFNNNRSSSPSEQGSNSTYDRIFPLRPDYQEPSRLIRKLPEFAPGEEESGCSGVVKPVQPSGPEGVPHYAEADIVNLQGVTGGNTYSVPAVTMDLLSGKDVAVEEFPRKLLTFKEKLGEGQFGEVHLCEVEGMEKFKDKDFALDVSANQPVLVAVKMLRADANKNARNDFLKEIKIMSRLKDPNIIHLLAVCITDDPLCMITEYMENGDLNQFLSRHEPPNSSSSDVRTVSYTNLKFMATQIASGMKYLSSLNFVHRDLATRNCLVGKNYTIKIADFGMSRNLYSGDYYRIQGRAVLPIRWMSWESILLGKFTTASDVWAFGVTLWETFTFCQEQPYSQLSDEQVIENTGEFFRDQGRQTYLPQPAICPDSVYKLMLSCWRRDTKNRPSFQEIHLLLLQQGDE", "assay": "Kinase profiling", "type": "binding", "conditions": "read-out: % Ctrl @ 1000 nM"}, "STK33": {"biological_target": "STK33 (Homo sapiens, UniProt Q9BYT3)", "assay": "Kinase profiling", "type": "binding", "conditions": "read-out: % Ctrl @ 1000 nM"}, "QSK": {"biological_target": "QSK (Homo sapiens, UniProt Q9Y2K2)", "assay": "Kinase profiling", "type": "binding", "conditions": "read-out: % Ctrl @ 1000 nM"}, "ADCK3": {"biological_target": "ADCK3 (Homo sapiens, UniProt Q8NI60)", "assay": "Kinase profiling", "type": "binding", "conditions": "read-out: % Ctrl @ 1000 nM"}, "PIK3CB": {"biological_target": "PIK3CB (Homo sapiens, UniProt P42338)", "assay": "Kinase profiling", "type": "binding", "conditions": "read-out: % Ctrl @ 1000 nM"}, "IRAK3": {"biological_target": "IRAK3 (Homo sapiens, UniProt Q9Y616)", "assay": "Kinase profiling", "type": "binding", "conditions": "read-out: % Ctrl @ 1000 nM"}, "ROCK1": {"biological_target": "ROCK1 (Homo sapiens, UniProt Q13464)", "assay": "Kinase profiling", "type": "binding", "conditions": "read-out: % Ctrl @ 1000 nM"}, "ACVR2B": {"biological_target": "ACVR2B (Homo sapiens, UniProt Q13705)", "sequence (Q13705 19-512)": "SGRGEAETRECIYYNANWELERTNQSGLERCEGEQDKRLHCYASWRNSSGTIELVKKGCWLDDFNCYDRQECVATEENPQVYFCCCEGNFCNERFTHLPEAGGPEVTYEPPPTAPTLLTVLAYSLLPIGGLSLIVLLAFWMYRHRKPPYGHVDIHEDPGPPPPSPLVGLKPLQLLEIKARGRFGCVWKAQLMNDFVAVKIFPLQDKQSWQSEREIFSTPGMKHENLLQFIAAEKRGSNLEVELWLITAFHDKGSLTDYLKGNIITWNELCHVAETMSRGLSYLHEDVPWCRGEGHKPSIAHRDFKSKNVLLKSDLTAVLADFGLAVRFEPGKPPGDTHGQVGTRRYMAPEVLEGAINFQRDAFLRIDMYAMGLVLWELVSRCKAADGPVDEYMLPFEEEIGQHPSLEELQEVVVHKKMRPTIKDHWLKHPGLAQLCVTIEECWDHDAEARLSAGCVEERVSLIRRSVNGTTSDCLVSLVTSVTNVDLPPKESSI", "assay": "Kinase profiling", "type": "binding", "conditions": "read-out: % Ctrl @ 1000 nM"}, "YES": {"biological_target": "YES (Homo sapiens, UniProt P07947)", "sequence (P07947 whole entry)": "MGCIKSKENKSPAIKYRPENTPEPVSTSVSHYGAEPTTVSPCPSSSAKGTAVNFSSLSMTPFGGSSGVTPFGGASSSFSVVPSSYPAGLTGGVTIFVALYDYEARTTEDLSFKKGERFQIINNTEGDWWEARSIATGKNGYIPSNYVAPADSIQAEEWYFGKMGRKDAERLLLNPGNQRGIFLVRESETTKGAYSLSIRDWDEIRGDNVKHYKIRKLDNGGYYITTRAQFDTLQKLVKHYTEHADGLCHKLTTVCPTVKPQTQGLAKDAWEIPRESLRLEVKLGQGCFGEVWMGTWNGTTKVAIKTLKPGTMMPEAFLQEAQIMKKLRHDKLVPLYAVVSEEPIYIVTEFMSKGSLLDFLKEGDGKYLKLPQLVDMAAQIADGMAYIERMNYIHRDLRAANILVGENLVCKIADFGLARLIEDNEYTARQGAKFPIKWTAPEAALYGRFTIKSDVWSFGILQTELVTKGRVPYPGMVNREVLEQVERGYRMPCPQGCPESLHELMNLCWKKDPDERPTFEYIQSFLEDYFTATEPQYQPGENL", "assay": "Kinase profiling", "type": "binding", "conditions": "read-out: % Ctrl @ 1000 nM"}, "EPHA5": {"biological_target": "EPHA5 (Homo sapiens, UniProt P54756)", "sequence (P54756 25-1037)": "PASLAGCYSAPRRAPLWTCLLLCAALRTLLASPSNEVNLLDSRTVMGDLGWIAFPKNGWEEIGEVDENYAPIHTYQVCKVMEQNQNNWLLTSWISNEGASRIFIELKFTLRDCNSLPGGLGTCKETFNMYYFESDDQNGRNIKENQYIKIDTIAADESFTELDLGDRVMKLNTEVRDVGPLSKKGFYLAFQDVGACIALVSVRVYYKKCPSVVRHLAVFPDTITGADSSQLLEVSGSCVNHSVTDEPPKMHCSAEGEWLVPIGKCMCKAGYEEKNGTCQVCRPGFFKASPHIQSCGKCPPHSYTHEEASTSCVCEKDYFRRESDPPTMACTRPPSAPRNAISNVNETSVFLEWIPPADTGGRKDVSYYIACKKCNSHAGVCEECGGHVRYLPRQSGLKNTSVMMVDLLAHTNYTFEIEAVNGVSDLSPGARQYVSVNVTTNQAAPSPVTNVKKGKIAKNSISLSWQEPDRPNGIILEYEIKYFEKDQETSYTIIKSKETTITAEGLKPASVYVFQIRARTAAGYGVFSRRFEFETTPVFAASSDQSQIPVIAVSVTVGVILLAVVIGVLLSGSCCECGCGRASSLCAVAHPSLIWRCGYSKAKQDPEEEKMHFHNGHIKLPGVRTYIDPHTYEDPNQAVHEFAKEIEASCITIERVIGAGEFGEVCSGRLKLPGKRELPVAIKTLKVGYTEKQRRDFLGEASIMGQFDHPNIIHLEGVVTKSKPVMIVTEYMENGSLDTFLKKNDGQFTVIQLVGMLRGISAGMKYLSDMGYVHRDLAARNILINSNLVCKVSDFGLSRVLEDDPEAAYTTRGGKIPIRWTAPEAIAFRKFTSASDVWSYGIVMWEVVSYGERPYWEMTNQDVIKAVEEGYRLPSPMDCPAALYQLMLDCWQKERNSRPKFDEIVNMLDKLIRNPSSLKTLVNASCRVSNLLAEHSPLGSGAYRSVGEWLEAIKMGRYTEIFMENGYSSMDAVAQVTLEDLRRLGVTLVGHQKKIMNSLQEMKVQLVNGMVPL", "assay": "Kinase profiling", "type": "binding", "conditions": "read-out: % Ctrl @ 1000 nM"}, "SGK3": {"biological_target": "SGK3 (Homo sapiens, UniProt Q96BR1)", "assay": "Kinase profiling", "type": "binding", "conditions": "read-out: % Ctrl @ 1000 nM"}},
  "data": [
    {"smiles": "Cc1cc(Oc2cc(NC(=O)C3CC3)ncn2)ccc1NC(=O)Nc1ccc(Cl)c(C(F)(F)F)c1", "note": "[CBT-102]", "values": [
      {"measurement": "remaining activity at 1 µM", "setting": "INSR", "result": 100, "unit": "%"},
      {"measurement": "remaining activity at 1 µM", "setting": "BRSK2", "result": 100, "unit": "%"},
      {"measurement": "remaining activity at 1 µM", "setting": "RIPK5", "result": 100, "unit": "%"},
      {"measurement": "remaining activity at 1 µM", "setting": "ASK2", "result": 94, "unit": "%"},
      {"measurement": "remaining activity at 1 µM", "setting": "PHKG2", "result": 87, "unit": "%"},
      {"measurement": "remaining activity at 1 µM", "setting": "CHEK2", "result": 100, "unit": "%"},
      {"measurement": "remaining activity at 1 µM", "setting": "LIMK2", "result": 92, "unit": "%"},
      {"measurement": "IC50", "setting": "BaF3 hCSF1R cell line", "result": 0.588, "unit": "µM"},
      {"measurement": "remaining activity at 1 µM", "setting": "[1]", "result": 100, "unit": "%"},
      {"measurement": "remaining activity at 1 µM", "setting": "[2]", "result": 88, "unit": "%"},
      {"measurement": "remaining activity at 1 µM", "setting": "DCAMKL1", "result": 100, "unit": "%"},
      {"measurement": "remaining activity at 1 µM", "setting": "SLK", "result": 1.4, "unit": "%"},
      {"measurement": "remaining activity at 1 µM", "setting": "VEGFR2", "result": 1.4, "unit": "%"},
      {"measurement": "remaining activity at 1 µM", "setting": "PKNB (M.tuberculosis)", "result": 100, "unit": "%"},
      {"measurement": "remaining activity at 1 µM", "setting": "GRK3", "result": 97, "unit": "%"},
      {"measurement": "remaining activity at 1 µM", "setting": "[3]", "result": 100, "unit": "%"},
      {"measurement": "remaining activity at 1 µM", "setting": "CDK4", "result": 100, "unit": "%"},
      {"measurement": "remaining activity at 1 µM", "setting": "NIK", "result": 100, "unit": "%"},
      {"measurement": "remaining activity at 1 µM", "setting": "MEK6", "result": 96, "unit": "%"},
      {"measurement": "remaining activity at 1 µM", "setting": "PIM3", "result": 98, "unit": "%"},
      {"measurement": "remaining activity at 1 µM", "setting": "DMPK2", "result": 100, "unit": "%"},
      {"measurement": "remaining activity at 1 µM", "setting": "GAK", "result": 100, "unit": "%"},
      {"measurement": "remaining activity at 1 µM", "setting": "IGF1R", "result": 95, "unit": "%"},
      {"measurement": "remaining activity at 1 µM", "setting": "GRK1", "result": 100, "unit": "%"},
      {"measurement": "remaining activity at 1 µM", "setting": "DDR2", "result": 1.1, "unit": "%"},
      {"measurement": "remaining activity at 1 µM", "setting": "STK33", "result": 63, "unit": "%"},
      {"measurement": "remaining activity at 1 µM", "setting": "QSK", "result": 91, "unit": "%"},
      {"measurement": "remaining activity at 1 µM", "setting": "ADCK3", "result": 100, "unit": "%"},
      {"measurement": "remaining activity at 1 µM", "setting": "PIK3CB", "result": 100, "unit": "%"},
      {"measurement": "remaining activity at 1 µM", "setting": "IRAK3", "result": 100, "unit": "%"},
      {"measurement": "remaining activity at 1 µM", "setting": "ROCK1", "result": 100, "unit": "%"},
      {"measurement": "remaining activity at 1 µM", "setting": "ACVR2B", "result": 89, "unit": "%"},
      {"measurement": "remaining activity at 1 µM", "setting": "YES", "result": 55, "unit": "%"},
      {"measurement": "remaining activity at 1 µM", "setting": "EPHA5", "result": 52, "unit": "%"},
      {"measurement": "remaining activity at 1 µM", "setting": "SGK3", "result": 82, "unit": "%"}
    ]}
  ]
}
